# Data taken from US20230312510A1, “COMPOUNDS AND METHODS FOR TREATING NEURODEGENERATIVE DISEASES” (The McLean Hospital Corporation, priority 2020, published 2023).
# Where “and” joins values, the source holds several entries; their conditions need not be identical. Equal entries are not always repeated. Where two headings read alike, the source gives them in different places.
# Experiments:
# [1] = target: T1, Nurr1-LBD (Homo sapiens, UniProt P43354); experiment: Luciferase activity assay (p4xNL3-Luc reporter) with Nurr1-LBD in SK-N-BE(2)C cells; type: cell-based; parameters: expressed in transfected cells; host or cells: SK-N-BE(2)C human neuroblastoma cells; details: for EC50: read-out: EC50, transcriptional activity of Nurr1-LBD
# [2] = tested on: Nurr1-LBD and full-length Nurr1; experiment: Luciferase activity assay (Nurr1 transactivation) in MN9D cells; type: cell-based, murine
# [3] = tested on: Nurr1-LBD and full-length Nurr1; experiment: Luciferase activity assay (Nurr1 transactivation) in N27-A cells; type: cell-based, murine
# [4] = Brain permeability (plasma and brain levels by LC-MS/MS) after i.v. injection; type: in vivo; details: rats, 5 mg/kg i.v., 5 min and 1 hr
# Description: Rats (n=6) were killed at 5 min and 1 hr after i.v. administration, and brain and plasma were collected for blood-brain barrier (BBB) penetration analysis. The concentrations of each compound in plasma (A) and brain (B) were determined by LC-MS/MS (liquid chromatography-tandem mass spectrometry). The brain/plasma ratio (B/P ratio) (C) is calculated at each time point.
# [5] = target: T2, Nurr1 (Homo sapiens, UniProt P43354); experiment: Relative luciferase activity versus previously reported compounds in SK-N-BE(2)C cells; type: cell-based; details: compared with control, AQ, CQ, SM-485, ATH-393, SR-175
# T2 construct: expressed in transfected cells; host or cells: SK-N-BE(2)C cells
# Description: Each bar indicates Mean±SEM from three independent experiments.
# [6] = tested on: N27-A cells; experiment: Starvation-induced autophagy and Nurr1 expression in N27-A cells with or without MPP+; type: cell-based
# Description: LC3B, p62 and Nurr1 expression levels determined by Western blot (D) were quantified.
# Next, autophagy regulation was assessed in a dopaminergic cell line N27-A in the absence or presence of MPP^+ (1 mM). […] Furthermore, it was observed that MPP disrupted autophagy showing accumulated LC3B-II and remained p62 at the late-stage, which corresponds to the previous studies (See Lim et al., Autophagy 2011, 7, 51-60; Hung et al., PLoS ONE 2014, 9, e91074; Park et al., J Biol Chem 2016, 291, 3531-3540).
# Referring to FIGS. 10D-10G, N27-A cells were treated with vehicle or MPP+ (1 mM) for 24 hrs and then changed with fresh growth medium with or without MPP+ 1 hr before starvation. […] To induce autophagy, N27-A cells were incubated in EBSS for 0-4 hrs, in the absence or presence of MPP+. Samples were analyzed by Western blot using autophagic flux markers LC3B and p62 (D) and its expression levels were quantified (10E and 10F). […] (10G) Nurr1 expression level changes were also analyzed and quantified.
# [7] = tested on: MN9D cells
# Description: (§2) Cell viability and cytotoxicity were measured by MTT (3-(4,5-dimethylthiazol-2-yl)-2,5-diphenyltetrazolium bromide) reduction assay.
# (§3) Cell viability and cytotoxicity were measured by lactate dehydrogenase (LDH) release assay.
# [8] = tested on: HeLa cells; experiment: Starvation-induced autophagy in HeLa cells (Western blot of LC3B and p62); type: cell-based; details: EBSS 0-4 hrs, BafA1 10 nM, CQ 20 μM, SPV-94 1 μM
# Description: To limit basal autophagy, cells were incubated in fresh growth medium for 1 hr before starvation. Samples were analyzed by Western blot using autophagic flux markers LC3B and p62 (A) and its expression levels were quantified (10B and 10C).
# [9] = tested on: MN9D cells; experiment: Protection against MPP+-induced toxicity in MN9D cells (MTT reduction, LDH release); details: for protective effect against MPP+-induced toxicity under Nurr1 overexpression (OE): CQ 100 μM, SPV-94 1 μM, vs Mock
# Description: as §2, §3
# [10] = pH 7.4
# [11] = target: T3, full-length Nurr1 (Homo sapiens, UniProt P43354); experiment: Luciferase activity assay (p4xNL3-Luc reporter) with full-length Nurr1 in SK-N-BE(2)C cells; type: cell-based; details: for EC50: read-out: EC50, transcriptional activity of full-length Nurr1
# T3 construct: expressed in transfected cells; host or cells: SK-N-BE(2)C human neuroblastoma cells
# [12] = tested on: MPTP-induced PD model mice; experiment: Sub-chronic MPTP-induced mice model of PD; details: for body weight recovery / cylinder test, rearing numbers, sub-chronic treatment / pole test, time to traverse, sub-chronic treatment / rotarod latency to fall, sub-chronic treatment: L-DOPA 50, CQ 40, SPV-94 5 mg/kg/day; for TH+ DAergic neurons (counting and densitometry): SNpc and OB; for olfactory discrimination test (olfaction), chronic treatment: day 14; for rotarod latency to fall, chronic treatment: day 15
# Description: (§4) Sub-chronic MPTP regimen (30 mg/kg/day, 5 days) was introduced.
# [13] = tested on: BV2 cells; experiment: LPS-induced TNFα mRNA expression in BV2 cells (real-time PCR); type: cell-based, mouse; details: LPS 1 μg/ml, compound 1 μM
# Description: (§1) Besides the role as an activator of DAergic genes, Nurr1 is known as a repressor of inflammatory genes in astrocytes and microglia (See Saijo et al., Cell 2009, 137, 47-59).
# [14] = tested on: mouse embryonic ventral mesencephalic (mVM) primary neurons; experiment: Dopaminergic gene expression in mVM primary neurons with or without 6-OHDA; type: cell-based; details: for DAergic gene expressions downregulated by 6-OHDA toxicity: 6-OHDA 20 μM; for DAergic gene expressions downregulated by 6-OHDA toxicity / mRNA expression levels of DAergic genes (TH, DAT, AADC, VMAT2, c-Ret, Pitx3): CQ 20 μM, SPV-94 0.5 μM; for mRNA expression levels of DAergic genes (TH, DAT, AADC, VMAT2, c-Ret, Pitx3): vs vehicle; for effects on DAergic gene expression in Nurr1 knockdown condition: Nurr1 KD
# Description: FIGS. 8A-8D show dopaminergic (DAergic) gene expressions in the absence or presence of 6-OHDA (20 μM) in mouse embryonic ventral mesencephalic (mVM) primary neurons derived from embryonic day 12.5 (E12.5).
# [15] = tested on: mouse bone marrow-derived primary macrophages (mBMMs); experiment: LPS- or poly(I:C)-induced pro-inflammatory gene expression in mBMMs; type: cell-based; details: CQ 10 μM, SPV-94 1 μM
# Description: as §1
# [16] = tested on: MPTP-induced PD model mice; details: mouse, in vivo
# Description: as §4
# [17] = tested on: N27-A cells; experiment: Protection against MPP+-induced toxicity in N27-A cells (MTT, LDH); details: 1 mM MPP+
# [18] = target: T1, Nurr1-LBD; experiment: Radioligand competition binding assay using [3H]-CQ; details: for IC50: 1,000 nM [3H]-CQ, 0.2 μM Nurr1-LBD, estimated, read-out: half maximal inhibitory concentration (IC50), competition with [3H]-CQ for binding to Nurr1-LBD
# T3 sequence (P43354 whole entry): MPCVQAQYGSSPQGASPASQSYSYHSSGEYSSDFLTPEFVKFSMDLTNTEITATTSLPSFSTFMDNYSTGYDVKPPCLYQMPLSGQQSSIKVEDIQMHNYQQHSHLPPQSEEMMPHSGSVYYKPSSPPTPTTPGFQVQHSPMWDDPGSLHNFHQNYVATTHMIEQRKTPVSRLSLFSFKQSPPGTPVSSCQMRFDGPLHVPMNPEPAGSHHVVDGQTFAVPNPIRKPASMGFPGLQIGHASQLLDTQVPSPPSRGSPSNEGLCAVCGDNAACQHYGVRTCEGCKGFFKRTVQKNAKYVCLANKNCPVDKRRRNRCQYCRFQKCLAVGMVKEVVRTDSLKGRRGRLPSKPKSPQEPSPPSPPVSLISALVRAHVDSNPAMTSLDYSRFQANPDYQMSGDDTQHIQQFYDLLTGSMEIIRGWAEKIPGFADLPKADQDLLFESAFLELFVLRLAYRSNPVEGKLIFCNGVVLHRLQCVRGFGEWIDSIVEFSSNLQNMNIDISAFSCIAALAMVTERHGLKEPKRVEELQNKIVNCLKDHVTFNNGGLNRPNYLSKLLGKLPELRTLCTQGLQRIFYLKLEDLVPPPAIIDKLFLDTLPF
# T1 sequence (P43354 360-595 limits assumed): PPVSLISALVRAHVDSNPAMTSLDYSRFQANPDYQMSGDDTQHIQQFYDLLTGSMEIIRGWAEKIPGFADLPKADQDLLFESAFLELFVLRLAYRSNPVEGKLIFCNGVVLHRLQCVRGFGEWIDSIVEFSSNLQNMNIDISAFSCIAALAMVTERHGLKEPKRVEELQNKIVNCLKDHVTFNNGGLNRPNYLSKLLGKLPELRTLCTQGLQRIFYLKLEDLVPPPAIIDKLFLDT
# T2 sequence (P43354 whole entry): as the sequence (P43354 whole entry) above
smiles,measurement,setting,value
CCN1CCN(c2cc(NCCNc3ccnc4cc(Cl)ccc34)nc(N3CCN(CC)CC3)n2)CC1 [SPV-94],"concentration of maximal efficiency, Nurr1-LBD transcriptional activity",[1]; SK-N-BE(2)C cells,20 µM
same,EC50,[1]; SK-N-BE(2)C cells,~10 µM and 10 µM
same,"fold lower concentration of maximal efficiency than CQ, Nurr1-LBD",[1]; versus CQ,5 fold
same,EC50,[2],~0.05 µM
same,transcriptional activities of Nurr1-LBD and full-length Nurr1,[2],enhanced transcriptional activities
same,EC50,[3],~0.05 µM
same,transcriptional activities of Nurr1-LBD and full-length Nurr1,[3],enhanced transcriptional activities
same,"penetration into the brain (brain and plasma concentration, B/P ratio)",[4],penetrated into the brain slower than CQ and consistently maintained its level
same,relative luciferase activity (transactivity) among selected candidates,[5],markedly highest transactivity among the selected candidates
same,basal Nurr1 expression level compared to VEH,"[6]; CQ 20 μM, SPV-94 1 μM",significantly higher
same,MPP+-induced autophagy dysregulation (p62 degradation),[6]; MPP+ 1 mM,seemed to protect N27-A cells from MPP+-induced autophagy dysregulation leading to successful p62 degradation
same,Nurr1 expression against MPP+,"[6]; MPP+ 1 mM, SPV-94 1 μM",maintained Nurr1 expression against MPP+
same,"autophagy termination (LC3B, p62)","[6]; starvation 0-4 hrs, BafA1 10 nM, CQ 20 μM, SPV-94 1 μM",autophagy was successfully terminated
same,"times lower concentration of maximal efficiency than CQ, protection from MPP+-induced cytotoxicity",[7],10 times
same,"autophagy process (LC3B, p62)",[8],initiated and also terminated autophagy process resulting in significant p62 degradation
same,"cell viability, MTT reduction assay",[9]; 500 μM MPP+,dose-dependently increased cell viability
same,protective effect against MPP+-induced toxicity under Nurr1 overexpression (OE),[9],potentiated protective effects
same,solubility,[10],504.88 µM
same,"concentration of maximal efficiency, full-length Nurr1 transcriptional activity",[11]; SK-N-BE(2)C cells,20 µM
same,EC50,[11]; SK-N-BE(2)C cells,~10 µM and 10 µM
same,"fold lower concentration of maximal efficiency than CQ, full-length Nurr1",[11]; versus CQ,5 fold
same,"olfactory discrimination test (olfaction), sub-acute stage",[12],significantly recovered olfaction
same,body weight recovery,[12],"restored it even earlier, after day 6"
same,"cylinder test, rearing numbers, sub-chronic treatment",[12],recovered rearing numbers in the cylinder test
same,"pole test, time to traverse, sub-chronic treatment",[12],reduced time to traverse on a pole
same,"rotarod latency to fall, sub-chronic treatment",[12],significantly improved motor deficits on the rotarod latency to fall
same,Nurr1-immunoreactive cells,[12]; SNpc,significantly retained Nurr1-immunoreactive cells
same,"GFAP immunoreactivity, activated astrocytes",[12]; STR,reduced number of activated astrocytes
same,Iba-1+ microglia numbers,[12]; STR and SNpc,significantly reduced numbers of Iba-1+ microglia
same,TH+ DAergic neurons (counting and densitometry),[12]; STR,significantly restored DAergic neurons
same,"olfactory discrimination test (olfaction), chronic treatment",[12],significantly recovered olfaction
same,"rotarod latency to fall, chronic treatment",[12],improved latency to fall on the rotarod on day 15
same,suppression of TNFα expression compared to LPS only,[13],20.67%
same,DAergic gene expressions downregulated by 6-OHDA toxicity,[14],significant recovery of downregulated DAergic gene expressions
same,"mRNA expression levels of DAergic genes (TH, DAT, AADC, VMAT2, c-Ret, Pitx3)",[14],significantly upregulated mRNA expression levels of DAergic genes
same,effects on DAergic gene expression in Nurr1 knockdown condition,[14],disappeared
same,"LPS- or poly(I:C)-induced pro-inflammatory gene expressions (TNFα, iNOS, IL-1β, IL-6)",[15],dramatically suppressed all four pro-inflammatory gene expressions
same,dyskinesia in the abnormal involuntary movements (AIMs) test,[16],did not trigger dyskinesia
same,"cell viability, MTT assay",[17],dose-dependently increased cell viability in MTT assay
same,Ki,[18],0.0111 µM
same,IC50,[18],0.05 µM
same,"times higher affinity to Nurr1-LBD than CQ, based on IC50s",[18]; versus CQ,20 times
"CCN(CC)CCCC(C)Nc1ccnc2cc(Cl)ccc12 (stereo not drawn) [CQ, chloroquine]",EC50,[1]; SK-N-BE(2)C cells,50 µM
same,transcriptional activities of Nurr1-LBD and full-length Nurr1,[2],enhanced transcriptional activities
same,transcriptional activities of Nurr1-LBD and full-length Nurr1,[3],enhanced transcriptional activities
same,basal Nurr1 expression level compared to VEH,"[6]; CQ 20 μM, SPV-94 1 μM",significantly higher
same,"autophagy process (LC3B, p62)",[8],induced autophagy initiation but inhibited autophagy process termination
same,"cytotoxicity, LDH release assay",[9]; 500 μM MPP+,reduced cytotoxicity
same,protective effect against MPP+-induced toxicity under Nurr1 overexpression (OE),[9],potentiated protective effects
same,EC50,[11]; SK-N-BE(2)C cells,50 µM
same,body weight recovery,[12],regained body weight after day 8
same,"cylinder test, rearing numbers, sub-chronic treatment",[12],recovered rearing numbers in the cylinder test
same,"pole test, time to traverse, sub-chronic treatment",[12],reduced time to traverse on a pole
same,"rotarod latency to fall, sub-chronic treatment",[12],significantly improved motor deficits on the rotarod latency to fall
same,TH+ DAergic neurons (counting and densitometry),[12]; STR,significantly restored DAergic neurons
same,dyskinesia in the abnormal involuntary movements (AIMs) test,[12]; chronic administration,did not trigger dyskinesia
same,"olfactory discrimination test (olfaction), chronic treatment",[12],significantly recovered olfaction
same,"rotarod latency to fall, chronic treatment",[12],improved latency to fall on the rotarod on day 15
same,suppression of TNFα expression compared to LPS only,[13],35.53%
same,DAergic gene expressions downregulated by 6-OHDA toxicity,[14],significant recovery of downregulated DAergic gene expressions
same,"mRNA expression levels of DAergic genes (TH, DAT, AADC, VMAT2, c-Ret, Pitx3)",[14],significantly upregulated mRNA expression levels of DAergic genes
same,effects on DAergic gene expression in Nurr1 knockdown condition,[14],disappeared
same,"LPS- or poly(I:C)-induced pro-inflammatory gene expressions (TNFα, iNOS, IL-1β, IL-6)",[15],significantly suppressed LPS- or poly(I:C)-induced pro-inflammatory gene expressions
same,"cytotoxicity, LDH assay",[17],reduced cytotoxicity in LDH assay
same,Ki,[18],0.0284 µM
same,IC50,[18],1 µM
